Measurements from PubChem BioAssay AID330 (DTP/NCI, 2004).
“And” between values parts separate entries of the source, which are not always exact repeats. Equal values may be shown once. Inconclusive results and toxic doses are left out. How the source made its calls: active means survival T/C of 150% or more; inactive means T/C below 125% in these data.

Tested on: P388 leukemia ip, CD2F1 mice, survival T/C
Experiment: NCI In Vivo Anticancer Drug Screen. Data for tumor model P388 Leukemia (intraperitoneal) in CD2F1 (CDF1) mice
Details: endpoint: median survival time, higher = longer survival
Summary of the method: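 Mice carrying the transplanted tumor received test compound or vehicle. Survival was recorded in each group, and the value is the treated-group measurement divided by that of the vehicle-treated control group.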

[1] = dose: 25.0 mg/kg/injection, schedule: Q01DX009 (ip), vehicle: Klucel (hydroxypropylcellulose) (HPC)
[2] = dose: 50.0 mg/kg/injection, schedule: Q01DX009 (ip), vehicle: Klucel (hydroxypropylcellulose) (HPC)
[3] = dose: 50.0 mg/kg/injection, schedule: Q01DX009 (ip), vehicle: saline with Tween-80
[4] = dose: 100.0 mg/kg/injection, schedule: Q01DX009 (ip), vehicle: saline with Tween-80
[5] = dose: 200.0 mg/kg/injection, schedule: Q01DX009 (ip), vehicle: saline with Tween-80
[6] = dose: 100.0 mg/kg/injection, schedule: Q04DX002 (ip), vehicle: saline with Tween-80
[7] = dose: 200.0 mg/kg/injection, schedule: Q04DX002 (ip), vehicle: saline with Tween-80
[8] = dose: 400.0 mg/kg/injection, schedule: Q04DX002 (ip), vehicle: saline with Tween-80

Measured: T/C

OCCCCc1nccc2c1[nH]c1ccccc12
inactive: dose: 12.5 mg/kg/injection, schedule: Q01DX009 (ip), vehicle: Klucel (hydroxypropylcellulose) (HPC) 106 % of control | [1] 106 % of control | [2] 104 % of control | dose: 100.0 mg/kg/injection, schedule: Q01DX009 (ip), vehicle: Klucel (hydroxypropylcellulose) (HPC) 95 % of control

CCCCN1CCC2(C)c3cc(O)ccc3CC1C2CC (configuration not stated)
inactive: dose: 7.5 mg/kg/injection, schedule: Q01DX005 (ip), vehicle: Klucel (hydroxypropylcellulose) (HPC) 101 % of control | dose: 15.0 mg/kg/injection, schedule: Q01DX005 (ip), vehicle: Klucel (hydroxypropylcellulose) (HPC) 100 % of control | dose: 30.0 mg/kg/injection, schedule: Q01DX005 (ip), vehicle: Klucel (hydroxypropylcellulose) (HPC) 97 % of control

CCN(C)N=Nc1ccc(C(N)=O)cc1
inactive: dose: 25.0 mg/kg/injection, schedule: Q01DX005 (ip), vehicle: Klucel (hydroxypropylcellulose) (HPC) 101 % of control and 105 % of control | dose: 50.0 mg/kg/injection, schedule: Q01DX005 (ip), vehicle: Klucel (hydroxypropylcellulose) (HPC) 95 % of control | dose: 200.0 mg/kg/injection, schedule: Q01DX005 (ip), vehicle: Klucel (hydroxypropylcellulose) (HPC) 89 % of control

CN(C)C1(c2ccccc2)CS(=O)(=O)C1
inactive: [3] 96 % of control | [4] 96 % of control | [5] 94 % of control

CNC(=O)NS(=O)(=O)c1cnccc1Cl
inactive: dose: 100.0 mg/kg/injection, schedule: Q01DX001 (ip), vehicle: saline with Tween-80 97 % of control | dose: 200.0 mg/kg/injection, schedule: Q01DX001 (ip), vehicle: saline with Tween-80 100 % of control | dose: 400.0 mg/kg/injection, schedule: Q01DX001 (ip), vehicle: saline with Tween-80 97 % of control

O=C(O)C(=O)O.[Cu+2].[NH-]C1CCCC2CCC[N-]C12 (configuration not stated)
inactive: dose: 7.5 mg/kg/injection, schedule: Q04DX002 (ip), vehicle: suspension in saline 89 % of control | dose: 15.0 mg/kg/injection, schedule: Q04DX002 (ip), vehicle: suspension in saline 92 % of control | dose: 30.0 mg/kg/injection, schedule: Q04DX002 (ip), vehicle: suspension in saline 90 % of control

c1ccc2c(Cc3csc4ccccc34)csc2c1
inactive: dose: 50.0 mg/kg/injection, schedule: Q01DX005 (ip), vehicle: distilled water + Tween-80 + alcohol 106 % of control | dose: 100.0 mg/kg/injection, schedule: Q01DX005 (ip), vehicle: distilled water + Tween-80 + alcohol 115 % of control | dose: 200.0 mg/kg/injection, schedule: Q01DX005 (ip), vehicle: distilled water + Tween-80 + alcohol 115 % of control

C[As](C)SC1CC(OC(=O)c2ccccc2)C(OC(=O)c2ccccc2)C(COC(=O)c2ccccc2)O1 (configuration not stated)
inactive: [3] 100 % of control | [4] 106 % of control | [5] 105 % of control

O=C(CC(O)(c1ccccc1)c1ccccc1)Sc1ccccc1
inactive: dose: 100.0 mg/kg/injection, schedule: Q04DX003 (ip), vehicle: Klucel (hydroxypropylcellulose) (HPC) 110 % of control | dose: 200.0 mg/kg/injection, schedule: Q04DX003 (ip), vehicle: Klucel (hydroxypropylcellulose) (HPC) 105 % of control | dose: 400.0 mg/kg/injection, schedule: Q04DX003 (ip), vehicle: Klucel (hydroxypropylcellulose) (HPC) 105 % of control

CC1[C@@]2(CCC(C)(C)O2)O[C@@H]2C=C3C4CCC5Cc6nc7c(nc6C[C@@]5(C)C4C[C@H](O)[C@@]3(C)[C@]12O)CC1CCC2C3=C[C@H]4O[C@@]5(O[C@@](C)(CO)C[C@@H]5O)C(C)[C@@]4(O)[C@]3(C)[C@@H](O)CC2[C@]1(C)C7 (some centres not stated)
inactive: dose: 12.5 micrograms/kg/injection, schedule: Q01DX009 (ip), vehicle: saline + alcohol 109 % of control | dose: 25.0 micrograms/kg/injection, schedule: Q01DX009 (ip), vehicle: saline + alcohol 98 % of control | dose: 50.0 micrograms/kg/injection, schedule: Q01DX009 (ip), vehicle: saline + alcohol 107 % of control | dose: 100.0 micrograms/kg/injection, schedule: Q01DX009 (ip), vehicle: saline + alcohol 107 % of control

CC(c1ccccc1)C1(C)NC(=O)NC1=O (configuration not stated)
inactive: dose: 100.0 mg/kg/injection, schedule: Q04DX003 (ip), vehicle: saline with Tween-80 97 % of control | dose: 200.0 mg/kg/injection, schedule: Q04DX003 (ip), vehicle: saline with Tween-80 101 % of control

CC(=O)NC(=S)Nc1ccccc1
inactive: dose: 25.0 mg/kg/injection, schedule: Q01DX001 (ip), vehicle: Klucel (hydroxypropylcellulose) (HPC) 100 % of control | dose: 50.0 mg/kg/injection, schedule: Q01DX001 (ip), vehicle: Klucel (hydroxypropylcellulose) (HPC) 101 % of control | dose: 100.0 mg/kg/injection, schedule: Q01DX001 (ip), vehicle: Klucel (hydroxypropylcellulose) (HPC) 103 % of control

CC(=O)CC(=O)OC(C)(C)C#CC(C)(C)OC(=O)CC(C)=O
inactive: dose: 50.0 mg/kg/injection, schedule: Q01DX009 (ip), vehicle: saline 102 % of control | dose: 100.0 mg/kg/injection, schedule: Q01DX009 (ip), vehicle: saline 103 % of control | dose: 200.0 mg/kg/injection, schedule: Q01DX009 (ip), vehicle: saline 100 % of control

CC1(C)OC2OC3C(CN)OC(c4ccccc4)OC3C2O1 (configuration not stated)
inactive: dose: 50.0 mg/kg/injection, schedule: Q01DX005 (ip), vehicle: saline with Tween-80 105 % of control | dose: 100.0 mg/kg/injection, schedule: Q01DX005 (ip), vehicle: saline with Tween-80 103 % of control | dose: 200.0 mg/kg/injection, schedule: Q01DX005 (ip), vehicle: saline with Tween-80 86 % of control

O=[N+]([O-])c1ccc(N=Nc2c(-c3ccccc3)nn(C(=S)S)c2-c2ccccc2)cc1
inactive: [6] 92 % of control | [7] 97 % of control | [8] 101 % of control

CN(C)S(=O)(=O)c1ncnc2nc[nH]c12
inactive: [4] 90 % of control | dose: 100.0 mg/kg/injection, schedule: Q04DX003 (ip), vehicle: saline sonified 100 % of control | [5] 90 % of control | dose: 200.0 mg/kg/injection, schedule: Q04DX003 (ip), vehicle: saline sonified 91 % of control | dose: 400.0 mg/kg/injection, schedule: Q01DX009 (ip), vehicle: saline with Tween-80 100 % of control | dose: 400.0 mg/kg/injection, schedule: Q04DX003 (ip), vehicle: saline sonified 91 % of control

COc1cc(O)ccc1/C=C/C(=O)c1ccc(OC2OC(CO)C(O)C(O)C2O)cc1 (configuration not stated)
inactive: [6] 98 % of control | [7] 105 % of control | [8] 108 % of control

Cc1nc(C)c(Cl)c(OS(=O)(=O)CCCCl)c1Cl
inactive: [1] 110 % of control (2×) and 92 % of control | dose: 35.0 mg/kg/injection, schedule: Q01DX009 (ip), vehicle: Klucel (hydroxypropylcellulose) (HPC) 110 % of control and 95 % of control | [2] 105 % of control and 120 % of control and 95 % of control | dose: 75.0 mg/kg/injection, schedule: Q01DX009 (ip), vehicle: Klucel (hydroxypropylcellulose) (HPC) 94 % of control

CSc1c(N(C)C)c(=O)c1=S
inactive: dose: 15.0 mg/kg/injection, schedule: Q01DX005 (ip), vehicle: saline with Tween-80 99 % of control | dose: 30.0 mg/kg/injection, schedule: Q01DX005 (ip), vehicle: saline with Tween-80 108 % of control | dose: 60.0 mg/kg/injection, schedule: Q01DX005 (ip), vehicle: saline with Tween-80 107 % of control

Nc1ccc(Cl)cc1N
inactive: dose: 12.5 mg/kg/injection, schedule: Q01DX009 (ip), vehicle: other 105 % of control | dose: 12.5 mg/kg/injection, schedule: Q01DX009 (ip), vehicle: saline with Tween-80 102 % of control | dose: 25.0 mg/kg/injection, schedule: Q01DX009 (ip), vehicle: other 100 % of control | dose: 25.0 mg/kg/injection, schedule: Q01DX009 (ip), vehicle: saline with Tween-80 102 % of control and 104 % of control | dose: 50.0 mg/kg/injection, schedule: Q01DX009 (ip), vehicle: other 113 % of control | [3] 101 % of control and 107 % of control | dose: 100.0 mg/kg/injection, schedule: Q01DX009 (ip), vehicle: other 105 % of control | [4] 100 % of control and 105 % of control | dose: 200.0 mg/kg/injection, schedule: Q01DX009 (ip), vehicle: other 105 % of control | [5] 114 % of control and 121 % of control
